This is an account of results in US10259779B2 (WAYNE STATE UNIVERSITY, priority 2016, dated 2019).

As usually defined, the EC50 is the concentration at which the effect is half-maximal. Higher therefore signals weaker potency. A word on the viability: it is a per cent measure of how many cells are alive, often set against a control. Low values mean a greater loss of cells, high ones better survival.

For data set [1], the target named is HDAC3 (Homo sapiens, UniProt O15379). As to the kind of experiment: ELISA-based HDAC activity assay, HDAC3. The following applies: read-out: Deacetylase activity (%) HDAC3. A general note: ELISA stands for enzyme-linked immunosorbent assay.
For data set [2], the system named is HDAC proteins in HeLa cell lysates. As to the kind of experiment: Global HDAC inhibition with HeLa cell lysates (HDAC-Glo I/II substrate). The following applies: Hela Lysate. The class given is biochemical. The method, then:
HDAC activity was measured using the commercially available HDAC-Glo™ I/II substrate (Promega).
Lysates were prepared according to the reported procedure.^28 HeLa-S3 cells (purchased from Biovest) were lysed in lysis buffer (1×10^9 cells in 10 mL lysis buffer; 50 mM Tris-HCl, pH 8.0, 10% glycerol, 150 mM NaCl, 0.5% Triton X-100, and 1× protease inhibitor cocktail (GenDEPOT)) with rotation at 4° C. for 30 min. Cell debris was removed by centrifugation at 12000 rpm at 4° C. for 30 min. Protein concentration of the supernatant was determined using Bio-Rad protein assay (BioRad, Bradford reagent). Lysates were stored at −80° C.
To measure global HDAC inhibition, HeLa cell lysates (1 μg total protein) were mixed with HDAC-Glo™ buffer in polystyrene 96-well half area white plate (Corning) to a final volume of 12 μL, followed by addition of inhibitors in DMSO (0.5 μL) and incubation for 15 min at room temperature without rocking. An uninhibited control reaction was also included that contained DMSO (0.5 μL). Finally, deacetylase activity was measured using the HDAC-Glo™ assay kit (Promega) as per the manufacturer's protocol. Specifically, the HDAC-Glo™ substrate (1 mL) and developer ([…]) were first premixed to form the HDAC-Glo™ reagents. Then, to monitor deacetylase activity, HDAC-Glo™ reagent (5 μL) and HDAC-Glo™ buffer (7.5 μL) were added to each well (25 μL total volume) and incubated for 35 min at room temperature without rocking. The deacetylase activity was measured as luminescent signal using a GeniosPlus Fluorimeter (Tecan) at optimal gain. The concentrations of inhibitors reported in the dose-dependent studies (Table 2) are final concentrations after addition of HDAC-Glo™ reagent HDAC-Glo™ buffer.

Data set [3] concerns U937 cells. As to the kind of experiment: In vitro cell growth inhibition, MTT assay, U937. The class given is cell-based. The following applies: U937 cell line.
Data set [4] concerns the target T1, recombinant HDAC8 (Homo sapiens, UniProt Q9BY41).
T1 construct: purchased BPS Bioscience
T1 sequence (Q9BY41 1-377): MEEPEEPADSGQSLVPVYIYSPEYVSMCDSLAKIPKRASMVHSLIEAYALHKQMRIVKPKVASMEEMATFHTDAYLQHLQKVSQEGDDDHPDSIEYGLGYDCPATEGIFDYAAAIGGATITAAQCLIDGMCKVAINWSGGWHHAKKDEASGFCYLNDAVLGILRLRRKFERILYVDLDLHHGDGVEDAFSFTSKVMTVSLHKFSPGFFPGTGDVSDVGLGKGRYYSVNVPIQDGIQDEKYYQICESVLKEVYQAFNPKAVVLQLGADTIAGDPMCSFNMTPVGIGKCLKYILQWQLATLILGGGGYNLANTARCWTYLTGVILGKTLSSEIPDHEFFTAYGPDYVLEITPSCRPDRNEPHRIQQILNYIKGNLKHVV
As to the kind of experiment: Recombinant HDAC8 inhibition (HDAC-Glo). It is filed as biochemical. The following applies: read-out: Deacetylase activity (%) HDAC8. The method, then:
Inhibitory activity with HDAC8 was measured using the following procedure. In a half area 96-well white opaque plate, recombinant HDAC8 (75 ng, BPS Bioscience) was incubated in HDAC-Glo™ buffer (39 μL) with inhibitor in DMSO (1 μL), or DMSO alone (1 μL) as a control, for 15 minutes at room temperature. HDAC-Glo™ reagent (10 μL) was added to each reaction and incubated for 30 min at room temperature. Luminescent signal was measured 30 minutes after adding the substrate reagent using a Geniosplus Fluorimeter (Tecan) at optimal gain. To determine IC50, the luminescent signal was first background corrected with the signal from a background control reaction where no HDAC8 enzyme was added.

Data set [5] addresses T2, HDAC1 (Homo sapiens, UniProt Q13547). The data set can be described thus: ELISA-based HDAC activity assay, HDAC1. The following applies: read-out: Deacetylase activity (%) HDAC1.
Data set [6] addresses T3, HDAC6 (Homo sapiens, UniProt Q9UBN7).
T3 sequence (Q9UBN7 1-1215): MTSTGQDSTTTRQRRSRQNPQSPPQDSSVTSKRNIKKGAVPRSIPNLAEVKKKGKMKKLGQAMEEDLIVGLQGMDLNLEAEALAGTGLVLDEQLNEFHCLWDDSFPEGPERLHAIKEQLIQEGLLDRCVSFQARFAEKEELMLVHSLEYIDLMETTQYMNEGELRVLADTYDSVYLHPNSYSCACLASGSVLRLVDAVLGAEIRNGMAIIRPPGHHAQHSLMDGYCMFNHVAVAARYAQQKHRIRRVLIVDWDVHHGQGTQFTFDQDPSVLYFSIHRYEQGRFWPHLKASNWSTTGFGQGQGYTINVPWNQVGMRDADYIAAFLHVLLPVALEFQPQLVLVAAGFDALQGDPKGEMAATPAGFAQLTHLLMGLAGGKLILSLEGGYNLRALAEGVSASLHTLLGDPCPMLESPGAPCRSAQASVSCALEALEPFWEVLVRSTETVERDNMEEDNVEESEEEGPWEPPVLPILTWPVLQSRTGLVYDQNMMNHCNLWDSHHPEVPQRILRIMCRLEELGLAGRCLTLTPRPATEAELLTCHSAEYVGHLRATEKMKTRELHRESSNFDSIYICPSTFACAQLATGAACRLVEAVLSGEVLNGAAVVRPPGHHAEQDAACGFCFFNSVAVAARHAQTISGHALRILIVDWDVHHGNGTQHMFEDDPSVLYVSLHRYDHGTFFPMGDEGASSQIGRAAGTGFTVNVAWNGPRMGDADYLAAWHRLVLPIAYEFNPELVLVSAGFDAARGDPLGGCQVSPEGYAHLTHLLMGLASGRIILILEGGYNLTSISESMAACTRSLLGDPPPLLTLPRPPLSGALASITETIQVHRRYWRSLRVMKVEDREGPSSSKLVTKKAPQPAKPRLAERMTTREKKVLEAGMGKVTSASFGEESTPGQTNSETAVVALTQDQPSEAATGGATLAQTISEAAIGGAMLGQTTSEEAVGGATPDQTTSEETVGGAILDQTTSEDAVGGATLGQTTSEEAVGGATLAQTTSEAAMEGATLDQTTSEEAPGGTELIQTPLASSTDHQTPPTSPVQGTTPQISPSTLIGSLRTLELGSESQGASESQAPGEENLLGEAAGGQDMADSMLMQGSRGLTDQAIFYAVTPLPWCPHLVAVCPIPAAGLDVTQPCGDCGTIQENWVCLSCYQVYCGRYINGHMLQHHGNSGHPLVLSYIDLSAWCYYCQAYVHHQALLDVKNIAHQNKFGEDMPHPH
As to the kind of experiment: ELISA-based HDAC activity assay, HDAC6. The following applies: read-out: Deacetylase activity (%) HDAC6.

The target of data set [7] is HDAC2 (Homo sapiens, UniProt Q92769). As to the kind of experiment: ELISA-based HDAC activity assay, HDAC2. The following applies: read-out: Deacetylase activity (%) HDAC2.
The nature of data set [8]: in vitro. The following applies: human, Jurkat cells (leukemia cell line).
For data set [9], the target named is T3, HDAC6. The following applies: single concentration 1 μM; cited from earlier work.
Data set [10] concerns the target T2, HDAC1. The following applies: single concentration 1 μM; cited from earlier work.
For data set [11], the system named is acetyl-α-tubulin (HDAC6 substrate) in U937 cells. As to the kind of experiment: In cellulo selectivity testing, western blot of acetyl-α-tubulin. The following applies: 18 hours, SAHA 5 μM, 1f 20-60 μM, compared to DMSO control. It is filed as cell-based.
Data set [12] has as its system acetyl-histone H3 (HDAC1, 2, 3 substrate) in U937 cells. The data set can be described thus: In cellulo selectivity testing, western blot of acetyl-histone H3. The following applies: 18 hours, SAHA 5 μM. It is filed as cell-based. In general terms: In western blotting, separated proteins are transferred to a membrane and probed.
The target in data set [13] is T3, HDAC6. The following applies: literature ref 55; cited from earlier work.

Chain of HDAC2 (Q92769 whole entry): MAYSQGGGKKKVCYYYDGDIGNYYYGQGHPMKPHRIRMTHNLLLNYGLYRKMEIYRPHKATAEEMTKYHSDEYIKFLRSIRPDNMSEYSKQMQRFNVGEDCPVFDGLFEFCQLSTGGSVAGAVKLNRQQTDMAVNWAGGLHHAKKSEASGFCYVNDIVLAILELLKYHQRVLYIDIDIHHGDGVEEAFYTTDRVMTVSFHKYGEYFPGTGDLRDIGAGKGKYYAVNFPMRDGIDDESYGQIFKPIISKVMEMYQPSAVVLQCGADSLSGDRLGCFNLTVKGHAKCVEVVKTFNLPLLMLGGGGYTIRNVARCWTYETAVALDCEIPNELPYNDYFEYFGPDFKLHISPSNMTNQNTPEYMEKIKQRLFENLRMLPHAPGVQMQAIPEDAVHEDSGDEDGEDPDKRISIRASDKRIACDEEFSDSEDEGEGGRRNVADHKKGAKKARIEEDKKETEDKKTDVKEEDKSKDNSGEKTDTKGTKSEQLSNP
T2 sequence (Q13547 whole entry): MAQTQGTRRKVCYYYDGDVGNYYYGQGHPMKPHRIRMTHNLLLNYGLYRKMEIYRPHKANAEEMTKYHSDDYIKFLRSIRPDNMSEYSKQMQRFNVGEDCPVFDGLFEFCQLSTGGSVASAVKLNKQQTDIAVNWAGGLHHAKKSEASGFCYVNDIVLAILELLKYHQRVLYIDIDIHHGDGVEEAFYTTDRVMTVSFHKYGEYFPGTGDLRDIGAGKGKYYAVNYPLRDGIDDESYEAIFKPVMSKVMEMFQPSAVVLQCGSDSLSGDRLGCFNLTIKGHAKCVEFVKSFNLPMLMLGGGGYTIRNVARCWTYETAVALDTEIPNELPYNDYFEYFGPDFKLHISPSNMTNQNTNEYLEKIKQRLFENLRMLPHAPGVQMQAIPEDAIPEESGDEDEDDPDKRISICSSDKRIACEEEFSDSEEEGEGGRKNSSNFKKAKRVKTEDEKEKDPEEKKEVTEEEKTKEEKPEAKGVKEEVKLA
Chain of HDAC3 (O15379 whole entry): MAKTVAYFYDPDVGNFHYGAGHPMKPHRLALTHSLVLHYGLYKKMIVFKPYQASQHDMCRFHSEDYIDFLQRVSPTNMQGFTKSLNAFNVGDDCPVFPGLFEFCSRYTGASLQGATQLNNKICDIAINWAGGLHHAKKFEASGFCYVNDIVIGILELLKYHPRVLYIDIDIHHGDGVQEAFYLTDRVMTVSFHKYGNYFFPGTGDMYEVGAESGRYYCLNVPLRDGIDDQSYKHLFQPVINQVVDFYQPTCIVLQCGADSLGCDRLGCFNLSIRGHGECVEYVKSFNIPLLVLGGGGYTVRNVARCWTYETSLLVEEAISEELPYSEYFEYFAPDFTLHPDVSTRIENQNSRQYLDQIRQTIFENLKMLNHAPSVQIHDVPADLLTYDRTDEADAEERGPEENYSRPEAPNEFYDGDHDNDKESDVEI
Chain of HDAC3 (Q9Y618 whole entry partner): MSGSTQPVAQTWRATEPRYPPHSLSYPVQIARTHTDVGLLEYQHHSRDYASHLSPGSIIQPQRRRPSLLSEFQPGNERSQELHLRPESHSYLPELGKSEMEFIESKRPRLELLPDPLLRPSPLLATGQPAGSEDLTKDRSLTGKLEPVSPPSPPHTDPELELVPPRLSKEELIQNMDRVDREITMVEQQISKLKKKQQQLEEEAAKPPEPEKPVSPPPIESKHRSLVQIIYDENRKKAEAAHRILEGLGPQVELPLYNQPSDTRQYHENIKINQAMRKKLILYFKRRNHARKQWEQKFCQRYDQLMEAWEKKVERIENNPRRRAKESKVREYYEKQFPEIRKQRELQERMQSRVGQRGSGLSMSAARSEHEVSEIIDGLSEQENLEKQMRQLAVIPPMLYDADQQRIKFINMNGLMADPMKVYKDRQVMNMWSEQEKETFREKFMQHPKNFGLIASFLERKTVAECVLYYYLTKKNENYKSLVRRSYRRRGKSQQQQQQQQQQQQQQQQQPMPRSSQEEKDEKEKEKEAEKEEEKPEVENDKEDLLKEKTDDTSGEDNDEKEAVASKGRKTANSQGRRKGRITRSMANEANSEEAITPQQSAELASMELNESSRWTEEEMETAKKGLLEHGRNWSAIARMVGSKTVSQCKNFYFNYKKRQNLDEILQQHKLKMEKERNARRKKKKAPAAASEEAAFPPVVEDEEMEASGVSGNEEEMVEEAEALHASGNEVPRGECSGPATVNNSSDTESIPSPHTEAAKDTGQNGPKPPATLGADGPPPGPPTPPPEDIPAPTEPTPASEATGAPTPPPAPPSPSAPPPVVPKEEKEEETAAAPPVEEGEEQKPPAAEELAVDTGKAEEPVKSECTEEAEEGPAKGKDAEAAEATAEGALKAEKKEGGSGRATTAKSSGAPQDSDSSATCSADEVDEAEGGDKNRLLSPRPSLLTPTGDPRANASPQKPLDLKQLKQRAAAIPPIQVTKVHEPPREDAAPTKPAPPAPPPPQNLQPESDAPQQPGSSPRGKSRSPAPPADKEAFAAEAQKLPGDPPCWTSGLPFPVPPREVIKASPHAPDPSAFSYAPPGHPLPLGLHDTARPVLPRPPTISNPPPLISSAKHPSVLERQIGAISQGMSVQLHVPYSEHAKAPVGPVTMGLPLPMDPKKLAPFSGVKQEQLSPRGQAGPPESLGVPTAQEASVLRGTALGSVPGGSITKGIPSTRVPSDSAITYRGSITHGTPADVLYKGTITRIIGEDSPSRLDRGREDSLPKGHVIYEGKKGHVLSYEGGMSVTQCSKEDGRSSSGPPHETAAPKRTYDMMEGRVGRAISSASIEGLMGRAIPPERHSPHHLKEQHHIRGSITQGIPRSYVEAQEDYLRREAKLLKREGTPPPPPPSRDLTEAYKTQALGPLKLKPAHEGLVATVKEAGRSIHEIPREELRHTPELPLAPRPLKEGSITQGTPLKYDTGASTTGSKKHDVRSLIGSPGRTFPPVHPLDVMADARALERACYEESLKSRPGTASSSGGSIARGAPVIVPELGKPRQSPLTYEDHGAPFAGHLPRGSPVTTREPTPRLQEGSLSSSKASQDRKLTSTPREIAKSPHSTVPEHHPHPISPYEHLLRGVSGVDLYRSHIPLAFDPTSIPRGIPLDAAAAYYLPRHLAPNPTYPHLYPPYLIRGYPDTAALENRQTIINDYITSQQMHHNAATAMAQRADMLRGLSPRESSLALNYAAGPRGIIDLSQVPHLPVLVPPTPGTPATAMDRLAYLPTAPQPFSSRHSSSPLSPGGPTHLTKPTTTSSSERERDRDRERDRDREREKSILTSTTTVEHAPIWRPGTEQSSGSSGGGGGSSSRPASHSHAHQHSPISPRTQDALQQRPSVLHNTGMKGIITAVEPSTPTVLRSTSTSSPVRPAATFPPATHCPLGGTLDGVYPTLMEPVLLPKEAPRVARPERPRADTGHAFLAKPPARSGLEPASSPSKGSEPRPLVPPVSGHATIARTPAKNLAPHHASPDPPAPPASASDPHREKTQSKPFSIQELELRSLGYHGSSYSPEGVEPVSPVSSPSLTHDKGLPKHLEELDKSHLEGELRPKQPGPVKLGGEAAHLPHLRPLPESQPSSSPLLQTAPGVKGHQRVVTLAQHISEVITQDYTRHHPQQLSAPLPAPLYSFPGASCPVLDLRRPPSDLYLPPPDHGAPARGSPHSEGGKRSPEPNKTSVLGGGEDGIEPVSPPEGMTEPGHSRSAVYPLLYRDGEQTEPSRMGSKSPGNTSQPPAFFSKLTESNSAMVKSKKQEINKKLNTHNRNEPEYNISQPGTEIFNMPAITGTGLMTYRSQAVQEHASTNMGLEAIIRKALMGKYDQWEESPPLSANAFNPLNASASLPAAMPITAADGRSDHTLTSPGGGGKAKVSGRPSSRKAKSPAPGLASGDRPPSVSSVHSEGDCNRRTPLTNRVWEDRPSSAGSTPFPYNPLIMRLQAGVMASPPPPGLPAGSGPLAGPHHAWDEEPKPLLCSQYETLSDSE

Regarding `CCCCC(CCCC(=O)Nc1ccccc1)CCC(=O)NO` (racemic) [Compound 1c, 4-butyl-N^1-hydroxy-N^8-phenyloctanediamide], the activity at 3.5 µM in data set [1] was 79 ± 3%; in data set [5], 81 ± 1%; in [7], 81 ± 5%. Moreover, the activity at 7 µM in [1] was 79 ± 3%; in data set [5], 67 ± 2%; in data set [7], 71 ± 2%. For the same molecule, the activity at 14 µM in data set [1] was 64 ± 2%; in data set [5], 53 ± 3%; in data set [7] it was 57 ± 1%. Moreover, the activity at 28 µM in [1] is 48 ± 5%; in [5], 35 ± 1%; in data set [7], 43 ± 2%. Moreover, the values for the activity at 56 µM in data set [1], in [5] and in [7] were 25 ± 5%, 19 ± 1% and 18 ± 10%, respectively. Besides, the “Deacetylase activity (%)” value in [2] (3.0 × 10^−5 M) stood at 69 ± 2%; in [2] (6.0 × 10^−5 M) it was 44 ± 4%; in [2] ([…] 10^−4 M), 24 ± 1%; in [2] ([…] 10^−5 M) it was 88 ± 1%; in data set [2] ([…] 10^−6 M), 97 ± 2%. The molecule also gave an EC50 in [3] of 34 µM. Moreover, the activity at 0.1 µM in data set [4] (1.0 × 10^−7 M) came out at 41 ± 5%; in data set [6] it was 46 ± 9%. Besides, in [4] (1.25 × 10^−8 M), the activity at 0.0125 µM was 84 ± 1%. Also, the figures for the activity at 0.2 µM in [4] (2.0 × 10^−7 M) and in data set [6] were 28 ± 4% and 39 ± 5%, respectively. The activity at […] in [4] (2.5 × 10^−8 M) is 74 ± 3%; in [6], 70 ± 6%; in data set [7] it was 87 ± 1%. In addition, the activity at 0.05 µM was found to be 61 ± 7% in data set [4] (5.0 × 10^−8 M) and 61 ± 6% in data set [6]. The activity at 0.4 µM in data set [6] stood at 23 ± 3%. This molecule also yielded a viability at 44 h, 1 µM in [8] of 98 ± 6%. Besides, in [8], the viability at 44 h, 10 µM was 62 ± 16%.

For the molecule `O=C(CCCCCCC(=O)Nc1ccccc1)NO` [SAHA, suberoylamide hydroxamic acid], the “Deacetylase activity (%) HDAC6” value in data set [9] is recorded as 7.9 ± 1.6%. Besides, the “Deacetylase activity (%) HDAC1” value in [10] is recorded as 8.9 ± 0.1%. Further, the “levels of acetyl-α-tubulin (AcTub), western blot” value in data set [11] is on record as “increases levels”. Besides, in data set [12], the “levels of acetyl-histone H3 (AcH3), western blot” value is listed as “increases levels”. Besides, the viability at 44 h, 10 µM in data set [8] came out at 5 ± 3%.

With `CCCC(CCC)C(=O)NO` [Valpropylhydroxamic acid], the “fold selectivity for HDAC6 and 8 against HDAC1, 2, and 3 (reported)” value in data set [13] is on record as 9-17 fold.
